The source of these data is patent US20050014735A1, “Treatment of Th2 dominated immunological disease states with progesterone receptor antagonists” (Solvay Pharmaceuticals GmbH, priority 2001, published 2005).

The subject of experiment [1] is peripheral blood mononuclear cells (PBMC). Put plainly: Th1 and Th2 cytokine profiles produced by mitogen-stimulated PBMC (ELISA), ex vivo. The class given is cell-based, human. Here is the method: The effects of dydrogesterone on Th1 and Th2 cytokine profiles produced by mitogen-stimulated peripheral blood mononuclear cells (=PBMC) were determined. Several studies have pointed to a deviation of cytokine profiles in women when during pregnancy. Pregnancy is associated with a shift towards Th2 bias, evinced by changes in peripheral T cells, by cytokine production by peripheral lymphocytes and by cytokine changes at the maternal-fetal interface. Unexplained recurrent spontaneous abortion (URSA) seems to be associated with a stronger bias towards Th1 cytokines. Women who have earlier been gone through URSA may therefore be regarded as a pre-selected group of patients that will typically respond to an immunological stimulation by showing a Th1 dominated pattern of immune response. The pharmacological test was therefore performed with a suitable URSA group which comprised of women admitted with spontaneous abortion for evacuation, (i) who have had at least two previous unexplained miscarriages, (ii) who were currently undergoing at least a 3rd abortion and (iii) who had been fully investigated. The relationship between habitual abortion and cytokine production response in 54 women with normal pregnancy (and at least 3 previous normal pregnancies) and 23 women with a history of habitual abortion of unexplained aetiology (URSA group) has been investigated. Peripheral blood was obtained by venipuncture from the abortion group on the day of abortion. PBMC is separated by Ficoll-paque (Pharmacia Biotech, Sweden) density gradient centrifugation, suspended in RPMI medium (=“Roswell Park Memorial Institute”-medium; obtained from GIBCO/BRL, USA) containing 10% fetal calf serum, aliquoted into 96 well tissue culture plates at a density of 100.000 cells per well and then stimulated with the mitogen phytohemagglutinin (=PHA, Sigma Chemicals, USA) at a concentration of […] for a period of 96 hours, with autologous placental antigens or with trophoblast antigens. […] Progesterone was tested at concentrations of […]. RU486 was tested at equivalent concentrations. Culture supernatants were harvested at 96 hours for determination of the levels of cytokines secreted by the PBMC into the supernatants. Cytokine levels were determined in the supernatants by enzyme-linked immunosorbent assay (=ELISA). Each sample was tested in the following manner: • PBMC+mitogen • PBMC+mitogen+progesterone • PBMC+mitogen+progesterone+RU486 • PBMC+mitogen+dydrogesterone • PBMC+mitogen+dydrogesterone+RU486 • PBMC+mitogen+Carrier • PBMC+mitogen+Carrier+RU486 Th1 cytokines TNF-α and IFN-γ, and Th2 cytokines IL-4, IL-6 and IL-10 were evaluated in these samples by ELISA using kits that were obtained from Immunotech SA, France. These consisted of “sandwich ELISA”; briefly the first step leads to the capture of the relevant cytokine by monoclonal anti-cytokine antibodies bound to the wells of microtiter plates. In the second step, a second biotinylated monoclonal is added together with streptavidin-enzyme (peroxidase or alkaline phosphatase) conjugate. The biotinylated antibody binds to the solid phase antibody-antigen complex, and in turn, binds the conjugate. After incubation the wells are washed and the binding of the streptavidin-enzyme via biotin is followed by the addition of a chromogenic substrate. The intensity of the coloration produced is proportional to the concentration of the cytokine in the sample. Standard curves are plotted for each of the cytokines using reference recombinant cytokines and the results are read from these curves. The sensitivity of each of the assays is as follows: 5 pg/ml of TNF-α, 0.08 IU/ml of IFN-γ, 5 pg/ml of IL-4 and 5 pg/ml of IL-10. Results will be analysed by the t-test for independent samples.

A further experiment concerns Th1 cytokine production. The settings on record: in vitro, women with recurrent pregnancy loss; cited from earlier work.
[2] abbreviates: PBMC of women with spontaneous abortion and habitual abortion.
Setting [3] is: PBMC supernatant, ELISA, 96 hours.

Consider `CC(=O)[C@H]1CC[C@H]2[C@@H]3C=CC4=CC(=O)CC[C@@]4(C)[C@@H]3CC[C@]12C` [dydrogesterone], for which, in experiment [1] (setting [2]), the “Th1/Th2 bias of cytokine profile” value was “shift from a Th1 towards a Th2 bias” and the activity of lymphocytes result is “reduced”. For the same compound, in experiment [1] (setting [3]), the IFN-γ level entry is “reduction”, the “Interleukin 4 level” value is “marked increase” and the “Interleukin 6 level” value is “marked increase”. Also, the “release of progesterone induced blocking factor (PIBF)” value in experiment [1] (women with spontaneous abortion and habitual abortion) was “increased release”.

`CC(=O)[C@H]1CC[C@H]2[C@@H]3CCC4=CC(=O)CC[C@]4(C)[C@H]3CC[C@]12C` [progesterone]: the “embryotoxic Th1 cytokine production to trophoblast” value in the experiment with Th1 cytokine production is on record as “inhibits”.
